Like-named read-outs stand apart in the source and are kept apart here.
Tests used:
[1] = system: ovarian cancer cell lines (A2780); experiment: In vitro cytotoxicity, SRB assay, ovarian cancer A2780; type: cell-based, human
Text: (§1) The C8-linked benzylidineanthracenone-PBD hybrids have been tested against eight human tumor cell lines derived from seven cancer types (breast, ovarian, colon, prostate, cervix, lung and oral cancer). For each compound, dose response curves for individual cell lines have been measured at a minimum of five concentrations at 10 fold dilutions. A protocol of 48 hrs continuous drug exposure has been used, and a sulforhodamine B (SRB) protein assay was used to estimate cell viability or growth. The results are expressed as percent of cell growth determined relative to that of untreated control cells. The GI50 values are the concentration for 50% cell growth inhibition (GI50) compared with the control has been calculated.

[2] = system: colon cancer cell lines (Colo205); experiment: In vitro cytotoxicity, SRB assay, colon cancer Colo205; type: cell-based, human
Text: as §1

[3] = system: cervix cancer cell lines (SiHa); experiment: In vitro cytotoxicity, SRB assay, cervix cancer SiHa; type: cell-based, human
Text: as §1

[4] = system: prostate cancer cell lines (PC3); experiment: In vitro cytotoxicity, SRB assay, prostate cancer PC-3; type: cell-based, human
Text: as §1

[5] = system: lung cancer cell lines (HoP62); experiment: In vitro cytotoxicity, SRB assay, lung cancer Hop62; type: cell-based, human
Text: as §1

[6] = system: oral cancer cell lines (KB); experiment: In vitro cytotoxicity, SRB assay, oral cancer KB; type: cell-based, human
Text: as §1

[7] = system: breast cancer cell lines (MCF7); experiment: In vitro cytotoxicity, SRB assay, breast cancer MCF7; type: cell-based, human
Text: as §1

[8] = system: lung cancer cell lines (A549); experiment: In vitro cytotoxicity, SRB assay, lung cancer A-549; type: cell-based, human
Text: as §1

[9] = system: duplex-form calf thymus DNA (CT-DNA); experiment: Thermal denaturation studies with calf thymus DNA; type: binding; details: [PBD]:[DNA] molar ratio 1:5, CT-DNA 100 μM, ligand 20 μM, pH 7.00
Protocol: Compounds were subjected to thermal denaturation studies with duplex-form calf thymus DNA (CT-DNA) using an adaptation of a reported procedure. Working solutions in aqueous buffer (10 mM NaH2PO41Na2HPO4, 1 mM Na2EDTA, pH 7.00±0.01) containing CT-DNA (100 μm in phosphate) and the PBD (20 μm) were prepared by addition of concentrated PBD solutions in DMSO to obtain a fixed [PBD]/[DNA] molar ratio of 1:5. The DNA-PBD solutions were incubated at 37° C. for 0, 18, and 36 h prior to analysis. Samples were monitored at 260 nm using a Beckman DU-7400 spectrophotometer fitted with high performance temperature controller, and heating was applied at 1° C. min^−1 in the 40-90° C. range. DNA helix→coil transition temperatures (Tm) were obtained from the maxima in the d(A260)/dT derivative plots. Results are given as the mean±standard deviation from three determinations and are corrected for the effects of DMSO co-solvent using a linear correction term. Drug-induced alterations in DNA melting behaviour are given by: ΔTm=Tm(DNA+PBD)−Tm (DNA alone), where the Tm value for the PBD-free CT-DNA is 69.0±0.01.
For a 1:5 molar ratio of [PBD]/[DNA], where CT-DNA concentration=100 μM and ligand concentration=20 μM in aqueous sodium phosphate buffer [10 mM sodium phosphate+1 mM EDTA, pH 7.00±0.01]. The ΔTm for PBD hybrids 5b, 5c, 5d, 5h, 5m and 5r at a [PBD]:[DNA] molar ratio of 1:5 increased to a value of 7.5° C., 9.3° C., 8.9° C., 8.0° C., 7.1° C., and 8.4° C. after 18 h incubation respectively.

[10] = Homo sapiens, Ovarian A2780, 48 hrs continuous drug exposure, SRB, read-out: GI50
[11] = Homo sapiens, ovarian cancer cell lines (A2780), exposure period of at least 48 hrs, read-out: GI50 (range for the group)
[12] = Homo sapiens, COLO 205, Colon Colo205, 48 hrs continuous drug exposure, SRB, read-out: GI50
[13] = Homo sapiens, COLO 205, colon cancer cell lines (Colo205), exposure period of at least 48 hrs, read-out: GI50 (range for the group)
[14] = Homo sapiens, Cervix SiHa, 48 hrs continuous drug exposure, SRB, read-out: GI50
[15] = Homo sapiens, cervix cancer cell lines (SiHa), exposure period of at least 48 hrs, read-out: GI50 (range for the group)
[16] = Homo sapiens, Prostate PC-3, 48 hrs continuous drug exposure, SRB, read-out: GI50
[17] = Homo sapiens, prostate cancer cell lines (PC3), exposure period of at least 48 hrs, read-out: GI50 (range for the group)
[18] = Homo sapiens, HOP-62, Lung Hop62, 48 hrs continuous drug exposure, SRB, read-out: GI50
[19] = Homo sapiens, HOP-62, lung cancer cell lines (HoP62), exposure period of at least 48 hrs, read-out: GI50 (range for the group)
[20] = Homo sapiens, Oral KB, 48 hrs continuous drug exposure, SRB, read-out: GI50
[21] = Homo sapiens, oral cancer cell lines (KB), exposure period of at least 48 hrs, read-out: GI50 (range for the group)
[22] = Homo sapiens, Breast MCF7, 48 hrs continuous drug exposure, SRB, read-out: GI50
[23] = Homo sapiens, breast cancer cell lines (MCF7), exposure period of at least 48 hrs, read-out: GI50 (range for the group)
[24] = Homo sapiens, A549, Lung A-549, 48 hrs continuous drug exposure, SRB, read-out: GI50
[25] = Homo sapiens, lung cancer cell lines (A549), exposure period of at least 48 hrs, read-out: GI50 (range for the group)

SMILES	GI50 [1, 10] [nM]	GI50 [1, 11] [nM]	GI50 [2, 12] [nM]	GI50 [2, 13] [nM]	GI50 [3, 14] [nM]	GI50 [3, 15] [nM]	GI50 [4, 16] [nM]	GI50 [4, 17] [nM]	GI50 [5, 18] [nM]	GI50 [5, 19] [nM]	GI50 [6, 20] [nM]	GI50 [6, 21] [nM]	GI50 [7, 22] [nM]	GI50 [7, 23] [nM]	GI50 [8, 24] [nM]	GI50 [8, 25] [nM]	ΔTm, drug-induced shift in DNA melting temperature ([9]; 0 h incubation at 37° C.) [°C]	ΔTm, drug-induced shift in DNA melting temperature ([9]; 18 h incubation at 37° C.) [°C]	also measured
COc1cc(C=C2c3ccccc3C(=O)c3ccccc32)ccc1OCCCOc1cc2c(cc1OC)C(=O)N1CCC[C@H]1C=N2 [5b, 7-methoxy-8-(3-{2-methoxy-4-[(10-oxo-9,10-dihydro-9-anthracenyliden)methyl]phenoxy}propoxy)-(11aS)-1,2,3,11a-5H-pyrrolo[2,1-c][1,4]benzodiazepin-5-one]	148	148 to 168	110	110 to 140	2200	2200 to 31000	180	150 to 2200	190	170 to 260	190	180 to 2500	140	90 to 180	1760	155 to 1940	6.1	7.5	
COc1cc(C=C2c3ccccc3C(=O)c3ccccc32)ccc1O [2a, 4-hydroxy-3-methoxybenzylidineanthracenone, reference compound]																	0.4	0.8	
COc1cc2c(cc1OCCCCOc1cccc(C=C3c4ccccc4C(=O)c4ccccc43)c1)N=C[C@@H]1CCCN1C2=O [5m, 7-methoxy-8-(4-{3-[(10-oxo-9,10-dihydro-9-anthracenyliden)methyl]phenoxy}butoxy)-(11aS)-1,2,3,11a-5H-pyrrolo[2,1-c][1,4]benzodiazepin-5-one]	160	148 to 168	140	110 to 140	2200	2200 to 31000	180	150 to 2200	230	170 to 260	2400	180 to 2500	170	90 to 180	1820	155 to 1940	6.5	7.1	
COc1cc2c(cc1O)N=CC1CCCN1C2=O (centres unmarked) [DC-81, reference compound]																	0.3	0.7	GI50 ([1]; Ovarian A2780, 48 hrs continuous drug exposure, SRB, read-out: GI50): 150 nM; GI50 ([2]; Colon Colo205, 48 hrs continuous drug exposure, SRB, read-out: GI50): 120 nM; GI50 ([3]; Cervix SiHa, 48 hrs continuous drug exposure, SRB, read-out: GI50): 170 nM; GI50 ([4]; Prostate PC-3, 48 hrs continuous drug exposure, SRB, read-out: GI50): 200 nM; GI50 ([5]; Lung Hop62, 48 hrs continuous drug exposure, SRB, read-out: GI50): 150 nM; GI50 ([6]; Oral KB, 48 hrs continuous drug exposure, SRB, read-out: GI50): 200 nM; GI50 ([7]; Breast MCF7, 48 hrs continuous drug exposure, SRB, read-out: GI50): 2190 nM; GI50 ([8]; Lung A-549, 48 hrs continuous drug exposure, SRB, read-out: GI50): 380 nM
COc1ccc(C=C2c3ccccc3C(=O)c3ccccc32)cc1OCCCCOc1cc2c(cc1OC)C(=O)N1CCC[C@H]1C=N2 [5r, 7-methoxy-8-(4-{2-methoxy-5-[(10-oxo-9,10-dihydro-9-anthracenyliden)methyl]phenoxy}butoxy)-(11aS)-1,2,3,11a-5H-pyrrolo[2,1-c][1,4]benzodiazepin-5-one]	166	148 to 168	140	110 to 140	31000	2200 to 31000	2100	150 to 2200	260	170 to 260	2500	180 to 2500	180	90 to 180	1900	155 to 1940	6.3	8.4	
COc1cc2c(cc1OCCCCOc1ccc(C=C3c4ccccc4C(=O)c4ccccc43)cc1)N=C[C@@H]1CCCN1C2=O [5h, 7-methoxy-8-(4-{4-[(10-oxo-9,10-dihydro-9-anthracenyliden)methyl]phenoxy}butoxy)-(11aS)-1,2,3,11a-5H-pyrrolo[2,1-c][1,4]benzodiazepin-5-one]	168	148 to 168	110	110 to 140	2500	2200 to 31000	2200	150 to 2200	200	170 to 260	2400	180 to 2500	160	90 to 180	150	155 to 1940	6.6	8.0	
COc1cc(C=C2c3ccccc3C(=O)c3ccccc32)ccc1OCCCCOc1cc2c(cc1OC)C(=O)N1CCC[C@H]1C=N2 [5c, 7-methoxy-8-(4-{2-methoxy-4-[(10-oxo-9,10-dihydro-9-anthracenyliden)methyl]phenoxy}butoxy)-(11aS)-1,2,3,11a-5H-pyrrolo[2,1-c][1,4]benzodiazepin-5-one]	150	148 to 168	120	110 to 140			180	150 to 2200	180	170 to 260	200	180 to 2500	90	90 to 180	1800	155 to 1940	7.7	9.3	
COc1cc(C=C2c3ccccc3C(=O)c3ccccc32)ccc1OCCCCCOc1cc2c(cc1OC)C(=O)N1CCC[C@H]1C=N2 [5d, 7-methoxy-8-(5-{2-methoxy-4-[(10-oxo-9,10-dihydro-9-anthracenyliden)methyl]phenoxy}pentoxy)-(11aS)-1,2,3,11a-5H-pyrrolo[2,1-c][1,4]benzodiazepin-5-one]	150	148 to 168			2200	2200 to 31000	150	150 to 2200	170	170 to 260	180	180 to 2500	150	90 to 180	1940	155 to 1940	7.4	8.9	
